Experimental data published in patent US11370798B2 (Vertex Pharmaceuticals Incorporated, priority 2012, dated 2022).

System: HCT116 colorectal cancer cells
Experiment: Cisplatin sensitization assay (96 h cell viability MTS);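 note: Test-compound concentration that lowers the Cisplatin IC50 by a set fold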
Assay type: cell-based
Details: compound and Cisplatin added simultaneously, Cisplatin sensitization value
In short: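 Compound and cisplatin added together as a full matrix of 2-fold serial dilutions from a top final concentration of 10 μM; cells incubated 96 h at 37° C, 5% CO2. Viability then read by MTS after 1 h further incubation; sensitization value reported in μM bins.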

Row | Structure (SMILES) | Cisplatin Sensitization Assay
1 | CN1CCN(C(=O)C2CCN(c3ccncc3NC(=O)c3c(N)nn4cc(F)cnc34)CC2)CC1 [I-G-1, 2-amino-6-fluoro-N-(4-(4-(4-methylpiperazine-1-carbonyl)piperidin-1-yl)pyridin-3-yl)pyrazolo[1,5-a]pyrimidine-3-carboxamide] | +++ (Cisplatin sensitization value of <0.02 μM)
2 | CN(C)C(=O)C1CCN(c2ccncc2NC(=O)c2c(N)nn3cc(F)cnc23)CC1 [I-G-2, 2-amino-N-(4-(4-(dimethylcarbamoyl)piperidin-1-yl)pyridin-3-yl)-6-fluoropyrazolo[1,5-a]pyrimidine-3-carboxamide] | +++ (Cisplatin sensitization value of <0.02 μM)
3 | CN1CCN(C(=O)C2CCN(c3c(Cl)cncc3NC(=O)c3c(N)nn4cc(F)cnc34)CC2)CC1 [I-G-3, 2-amino-N-(5-chloro-4-(4-(4-methylpiperazine-1-carbonyl)piperidin-1-yl)pyridin-3-yl)-6-fluoropyrazolo[1,5-a]pyrimidine-3-carboxamide] | +++ (Cisplatin sensitization value of <0.02 μM)
4 | CN1CCN(C(=O)C2CCN(c3c(F)cncc3NC(=O)c3c(N)nn4cc(F)cnc34)CC2)CC1 [I-G-4, 2-amino-6-fluoro-N-(5-fluoro-4-(4-(4-methylpiperazine-1-carbonyl)piperidin-1-yl)pyridin-3-yl)pyrazolo[1,5-a]pyrimidine-3-carboxamide] | +++ (Cisplatin sensitization value of <0.02 μM)
5 | CN1CCN(C(=O)C2CCN(c3c(F)cncc3NC(=O)c3c(N)nn4cc(Cl)cnc34)CC2)CC1 [I-G-5, 2-amino-6-chloro-N-(5-fluoro-4-(4-(4-methylpiperazine-1-carbonyl)piperidin-1-yl)pyridin-3-yl)pyrazolo[1,5-a]pyrimidine-3-carboxamide] | +++ (Cisplatin sensitization value of <0.02 μM)
6 | CN1CCCN(C(=O)C2CCN(c3c(F)cncc3NC(=O)c3c(N)nn4cc(F)cnc34)CC2)CC1 [I-G-6, 2-amino-6-fluoro-N-(5-fluoro-4-(4-(4-methyl-1,4-diazepane-1-carbonyl)piperidin-1-yl)pyridin-3-yl)pyrazolo[1,5-a]pyrimidine-3-carboxamide] | +++ (Cisplatin sensitization value of <0.02 μM)
7 | Nc1nn2cc(F)cnc2c1C(=O)Nc1cncc(F)c1N1CCC(C(=O)N2CCN3CCC2CC3)CC1 [I-G-7, N-(4-(4-(1,4-diazabicyclo[3.2.2]nonane-4-carbonyl)piperidin-1-yl)-5-fluoropyridin-3-yl)-2-amino-6-fluoropyrazolo[1,5-a]pyrimidine-3-carboxamide] | +++ (Cisplatin sensitization value of <0.02 μM)
8 | Nc1nn2cc(F)cnc2c1C(=O)Nc1cncc(F)c1N1CCC(C(=O)N2CCC2)CC1 [I-G-8, 2-amino-N-(4-(4-(azetidine-1-carbonyl)piperidin-1-yl)-5-fluoropyridin-3-yl)-6-fluoropyrazolo[1,5-a]pyrimidine-3-carboxamide] | +++ (Cisplatin sensitization value of <0.02 μM)
9 | CCN1CCN(C(=O)C2CCN(c3c(F)cncc3NC(=O)c3c(N)nn4cc(F)cnc34)CC2)CC1 [I-G-9, 2-amino-N-(4-(4-(4-ethylpiperazine-1-carbonyl)piperidin-1-yl)-5-fluoropyridin-3-yl)-6-fluoropyrazolo[1,5-a]pyrimidine-3-carboxamide] | +++ (Cisplatin sensitization value of <0.02 μM)
10 | Nc1nn2cc(F)cnc2c1C(=O)Nc1cncc(F)c1N1CCC(C(=O)N2CCN3CCCC3C2)CC1 (centres unmarked) [I-G-10, 2-amino-6-fluoro-N-(5-fluoro-4-(4-(octahydropyrrolo[1,2-a]pyrazine-2-carbonyl)piperidin-1-yl)pyridin-3-yl)pyrazolo[1,5-a]pyrimidine-3-carboxamide] | +++ (Cisplatin sensitization value of <0.02 μM)
11 | CN(C)[C@@H]1CCN(C(=O)C2CCN(c3c(F)cncc3NC(=O)c3c(N)nn4cc(F)cnc34)CC2)C1 [I-G-11, (R)-2-amino-N-(4-(4-(3-(dimethylamino)pyrrolidine-1-carbonyl)piperidin-1-yl)-5-fluoropyridin-3-yl)-6-fluoropyrazolo[1,5-a]pyrimidine-3-carboxamide] | +++ (Cisplatin sensitization value of <0.02 μM)
12 | Nc1nn2cc(F)cnc2c1C(=O)Nc1cncc(F)c1N1CCC(C(=O)N2CCNCC2)CC1 [I-G-12, 2-amino-6-fluoro-N-(5-fluoro-4-(4-(piperazine-1-carbonyl)piperidin-1-yl)pyridin-3-yl)pyrazolo[1,5-a]pyrimidine-3-carboxamide] | +++ (Cisplatin sensitization value of <0.02 μM)
13 | Nc1nn2cc(F)cnc2c1C(=O)Nc1cncc(F)c1N1CCC(C(=O)N2CCN(C3CC3)CC2)CC1 [I-G-13, 2-amino-N-(4-(4-(4-cyclopropylpiperazine-1-carbonyl)piperidin-1-yl)-5-fluoropyridin-3-yl)-6-fluoropyrazolo[1,5-a]pyrimidine-3-carboxamide] | +++ (Cisplatin sensitization value of <0.02 μM)
14 | Nc1nn2cc(F)cnc2c1C(=O)Nc1cncc(F)c1N1CCC(C(=O)N2CC3(COC3)C2)CC1 [I-G-14, N-(4-(4-(2-oxa-6-azaspiro[3.3]heptane-6-carbonyl)piperidin-1-yl)-5-fluoropyridin-3-yl)-2-amino-6-fluoropyrazolo[1,5-a]pyrimidine-3-carboxamide] | +++ (Cisplatin sensitization value of <0.02 μM)
15 | CN1CCN(C(=O)C2CCN(c3c(F)cncc3NC(=O)c3c(N)nn4cc(F)cnc34)CC2)CC1(C)C [I-G-15, 2-amino-6-fluoro-N-(5-fluoro-4-(4-(3,3,4-trimethylpiperazine-1-carbonyl)piperidin-1-yl)pyridin-3-yl)pyrazolo[1,5-a]pyrimidine-3-carboxamide] | +++ (Cisplatin sensitization value of <0.02 μM)
16 | CN(C)CCCN(C)C(=O)C1CCN(c2c(F)cncc2NC(=O)c2c(N)nn3cc(F)cnc23)CC1 [I-G-16, 2-amino-N-(4-(4-((3-(dimethylamino)propyl)(methyl)carbamoyl)piperidin-1-yl)-5-fluoropyridin-3-yl)-6-fluoropyrazolo[1,5-a]pyrimidine-3-carboxamide] | +++ (Cisplatin sensitization value of <0.02 μM)
17 | CNCCCN(C)C(=O)C1CCN(c2c(F)cncc2NC(=O)c2c(N)nn3cc(F)cnc23)CC1 [I-G-17] | + (Cisplatin sensitization value>0.2 μM but <5 μM)
18 | CN1CC2CN(C(=O)C3CCN(c4c(F)cncc4NC(=O)c4c(N)nn5cc(F)cnc45)CC3)CC2C1 (centres unmarked) [I-G-18, 2-amino-6-fluoro-N-(5-fluoro-4-(4-(5-methyloctahydropyrrolo[3,4-c]pyrrole-2-carbonyl)piperidin-1-yl)pyridin-3-yl)pyrazolo[1,5-a]pyrimidine-3-carboxamide] | +++ (Cisplatin sensitization value of <0.02 μM)
19 | CC(C)(C)NC(=O)C1CCN(c2c(F)cncc2NC(=O)c2c(N)nn3cc(F)cnc23)CC1 [I-G-19, 2-amino-N-(4-(4-(tert-butylcarbamoyl)piperidin-1-yl)-5-fluoropyridin-3-yl)-6-fluoropyrazolo[1,5-a]pyrimidine-3-carboxamide] | ++ (Cisplatin sensitization value>0.02 μM but <0.2 μM)
20 | CN1CCC(NC(=O)C2CCN(c3c(F)cncc3NC(=O)c3c(N)nn4cc(F)cnc34)CC2)CC1 [I-G-20, 2-amino-6-fluoro-N-(5-fluoro-4-(4-((1-methylpiperidin-4-yl)carbamoyl)piperidin-1-yl)pyridin-3-yl)pyrazolo[1,5-a]pyrimidine-3-carboxamide] | + (Cisplatin sensitization value>0.2 μM but <5 μM)
21 | COC1CN(C(=O)C2CCN(c3c(F)cncc3NC(=O)c3c(N)nn4cc(F)cnc34)CC2)C1 [I-G-21, 2-amino-6-fluoro-N-(5-fluoro-4-(4-(3-methoxyazetidine-1-carbonyl)piperidin-1-yl)pyridin-3-yl)pyrazolo[1,5-a]pyrimidine-3-carboxamide] | +++ (Cisplatin sensitization value of <0.02 μM)
22 | CN(C)C1CN(C(=O)C2CCN(c3c(F)cncc3NC(=O)c3c(N)nn4cc(F)cnc34)CC2)C1 [I-G-22, 2-amino-N-(4-(4-(3-(dimethylamino)azetidine-1-carbonyl)piperidin-1-yl)-5-fluoropyridin-3-yl)-6-fluoropyrazolo[1,5-a]pyrimidine-3-carboxamide] | +++ (Cisplatin sensitization value of <0.02 μM)
23 | CN1CC(NC(=O)C2CCN(c3c(F)cncc3NC(=O)c3c(N)nn4cc(F)cnc34)CC2)C1 [I-G-23, 2-amino-6-fluoro-N-(5-fluoro-4-(4-((1-methylazetidin-3-yl)carbamoyl)piperidin-1-yl)pyridin-3-yl)pyrazolo[1,5-a]pyrimidine-3-carboxamide] | +++ (Cisplatin sensitization value of <0.02 μM)
24 | CN1CCC(NC(=O)C2CCN(c3c(F)cncc3NC(=O)c3c(N)nn4cc(F)cnc34)CC2)C1 (centres unmarked) [I-G-24, 2-amino-6-fluoro-N-(5-fluoro-4-(4-((1-methylpyrrolidin-3-yl)carbamoyl)piperidin-1-yl)pyridin-3-yl)pyrazolo[1,5-a]pyrimidine-3-carboxamide] | +++ (Cisplatin sensitization value of <0.02 μM)
25 | CN1CCN(C(=O)C2(C#N)CCN(c3c(F)cncc3NC(=O)c3c(N)nn4cc(F)cnc34)CC2)CC1 [I-G-25, 2-amino-N-(4-(4-cyano-4-(4-methylpiperazine-1-carbonyl)piperidin-1-yl)-5-fluoropyridin-3-yl)-6-fluoropyrazolo[1,5-a]pyrimidine-3-carboxamide] | +++ (Cisplatin sensitization value of <0.02 μM)
26 | CN(C)CCCNC(=O)C1CCN(c2c(F)cncc2NC(=O)c2c(N)nn3cc(F)cnc23)CC1 [I-G-26, 2-amino-N-(4-(4-((3-(dimethylamino)propyl)carbamoyl)piperidin-1-yl)-5-fluoropyridin-3-yl)-6-fluoropyrazolo[1,5-a]pyrimidine-3-carboxamide] | ++ (Cisplatin sensitization value>0.02 μM but <0.2 μM)
